# Several values for one entry are separate records, joined by “and”; a condition that tells them apart may be missing. Identical values can stand only once.
# Test system: 242566-281-R-J2-PDC complex spheroid viability
# Test: Anticancer human tumor 242566-281-R-J2-PDC patient-derived pancreatic carcinoma cell line growth inhibition [CLK]
# Conditions: for viability, T/C: stronger effect = lower value
# Excerpt: A high-throughput screen of multi-cell type tumor spheroids was designed to identify active combinations of […] and targeted small molecules. Complex spheroids include a stromal component modeled by human endothelial cells (HUVEC) and fibroblasts modeled by human mesenchymal stem cells (MSCs). The concentration ranges selected for each drug and investigational agent were based upon clinically achievable concentrations if the clinical Cmax of the agent was known.
# Compounds. The drugs and investigational agents: cirtuvivint (SM08502; NSC835563), CC-671 (NSC850746), vemurafenib (NSC761431), tapotoclax (NSC804041), sotorasib (NSC818433), adagrasib (NSC831453), MRTX-1133 (NSC836407), BAY2416964 (NSC825713), copanlisib (NSC816437), inavolisib (NSC800729), abemaciclib (NSC768073), osimertinib (NSC779217), entinostat (NSC756642), eltanexor (KPT-8602, NSC794443), venetoclax (NSC766270), ceralasertib (NSC777638), bortezomib (NSC756655), olaparib (NSC753686), talazoparib (NSC767125), alisertib (NSC759677), peposertib (NSC802822), gemcitabine (NSC613327), 5-fluorouracil (NSC19893), SN-38 (NSC673596), oxaliplatin (NSC266046), paclitaxel (NSC125973), and doxorubicin (NSC123127), were obtained from the National Cancer Institute (NCI) Developmental Therapeutics Program Chemical Repository. The FDA-approved anticancer drug set is available from the Developmental Therapeutics Program at https://dtp.cancer.gov/organization/dscb/obtaining/available plates.htm. […] The stock solutions were prepared in dimethyl sulfoxide (DMSO, Sigma-Aldrich, St. Louis, MO, cat. D2650), except for the platinum complexes which were prepared in saline (Quality Biological, Gaithersburg, MD, cat. 114-055-101), at 800-fold the tested concentration and stored at -70 degrees C prior to their use. All drugs and investigational agents were tested over a range starting from a high concentration at or near the clinical Cmax and decreasing in half-log increments. If the clinical Cmax for an agent had not been determined, the highest concentration tested was 10 microM.
# Cell Culture. All cells were maintained in an incubator at 37 degrees C and 5% CO2 with 95% humidity. The PDC lines were cultured according to standard operating procedures established by the NCI PDMR. Briefly, all PDCs were thawed and cultured in Matrigel-coated flasks prepared with a working solution of 1X Ham's F-12 nutrient mix, without supplementation (Invitrogen, Waltham, MA, cat. 11765054), 100 U/mL penicillin-streptomycin (Invitrogen, cat. 15140122), and 2.5% Matrigel (Corning Inc., Corning, NY, cat. 354248) for the first three passages. The 947758-054-R-J2-PDC line was cultured in 6B/Colon 1A media, which includes advanced DMEM/F-12 (Thermo Fisher Scientific, cat. 12634028), 10 mM HEPES (Thermo Fisher Scientific, cat. 15630080), 1X GlutaMAX supplement (Thermo Fisher Scientific, cat. 35050061), 0.1 mg/mL primocin (InvivoGen, cat. ant-pm-2), 10% defined fetal bovine serum, heat inactivated (HyClone Laboratories Inc., cat. SH30070.03HI), 1.25 mM N-Acetyl-L-cysteine (Sigma-Aldrich, cat. A9165), 10 mM nicotinamide (Sigma-Aldrich, cat. N0636), 1X B-27 supplement (Thermo Fisher Scientific, cat. 17504044), 1X N-2 supplement (Thermo Fisher Scientific, cat. 17502048), and 10 microM Y-27632 dihydrochloride (Tocris Bioscience, cat. 1254). The 876862-298-R-J1-PDC was cultured in 6E media, which includes all 6B/Colon 1A media components plus 50% L-WRN conditioned media (ATCC, cat. CRL-3276), 50 ng/mL recombinant human EGF recombinant protein (hEGF; Thermo Fisher Scientific, cat. PHG0311), 10 ng/mL recombinant human fibroblast growth factor 10 (hGFG-10; PeproTech, cat. 100-26), 1 ng/mL recombinant human fibroblast growth factor 2 (hFGF-2; PeproTech, cat. 100-18B), and 1 µM prostaglandin E2 (PGE2; Tocris, cat. 2296). The 227483-062-R1-J1-PDC line was cultured in Panc media, containing all 6E components except hFGF-2, with the addition of 500 nM SB-431542 (Selleckchem, cat. S1067) and 10 nM gastrin (Tocris, cat. 3006). […]
# [1] = curve of first compound, second compound 0.0316 µM
# [2] = curve of first compound, second compound 0.1 µM
# [3] = curve of first compound, second compound 0.316 µM
# [4] = curve of first compound, second compound 1 µM
# [5] = curve of first compound, second compound 3.16 µM
# [6] = curve of first compound, second compound 10 µM
# [7] = second compound 0.0316 µM, first compound 0.0316 µM
# [8] = second compound 0.0316 µM, first compound 0.1 µM
# [9] = second compound 0.0316 µM, first compound 0.316 µM
# [10] = second compound 0.0316 µM, first compound 1 µM
# [11] = second compound 0.1 µM, first compound 0.0316 µM
# [12] = second compound 0.1 µM, first compound 0.1 µM
# [13] = second compound 0.1 µM, first compound 0.316 µM
# [14] = second compound 0.1 µM, first compound 1 µM
# [15] = second compound 0.316 µM, first compound 0.0316 µM
# [16] = second compound 0.316 µM, first compound 0.1 µM
# [17] = second compound 0.316 µM, first compound 0.316 µM
# [18] = second compound 0.316 µM, first compound 1 µM
# [19] = second compound 1 µM, first compound 0.0316 µM
# [20] = second compound 1 µM, first compound 0.1 µM
# [21] = second compound 1 µM, first compound 0.316 µM
# [22] = second compound 1 µM, first compound 1 µM
# [23] = second compound 3.16 µM, first compound 0.0316 µM
# [24] = second compound 3.16 µM, first compound 0.1 µM
# [25] = second compound 3.16 µM, first compound 0.316 µM
# [26] = second compound 3.16 µM, first compound 1 µM
# [27] = second compound 10 µM, first compound 0.0316 µM
# [28] = second compound 10 µM, first compound 0.1 µM
# [29] = second compound 10 µM, first compound 0.316 µM
# [30] = second compound 10 µM, first compound 1 µM
# 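Note: spheroids exposed to compounds for 7 days before readout.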
# 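Throughout, for viability, T/C: 100% = DMSO vehicle control wells.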
smiles,measurement,setting,value
CCCS(=O)(=O)Nc1ccc(F)c(C(=O)c2c[nH]c3ncc(-c4ccc(Cl)cc4)cc23)c1F + CN1CCN(c2cc(C(=O)Nc3cc4cc(-c5cnn(C)c5)ccc4cn3)ccn2)CC1,IC50,[1],5800 nM
same,IC50,[2],5580 nM
same,IC50,[3],< 31.6 nM
same,IC50,[4],< 31.6 nM
same,IC50,[5],< 31.6 nM
same,IC50,[6],< 31.6 nM
same,"viability, T/C",[7],98.8%
same,"viability, T/C",[8],93.1%
same,"viability, T/C",[9],96.3%
same,"viability, T/C",[10],126%
same,"viability, T/C","second compound 0.0316 µM, first compound 3.16 µM",97.3%
same,"viability, T/C","second compound 0.0316 µM, first compound 10 µM",7.56%
same,"viability, T/C",[11],84.8%
same,"viability, T/C",[12],102%
same,"viability, T/C",[13],87.5%
same,"viability, T/C",[14],109%
same,"viability, T/C","second compound 0.1 µM, first compound 3.16 µM",89.6%
same,"viability, T/C","second compound 0.1 µM, first compound 10 µM",8.92%
same,"viability, T/C",[15],42.3%
same,"viability, T/C",[16],44.7%
same,"viability, T/C",[17],45.2%
same,"viability, T/C",[18],40.5%
same,"viability, T/C","second compound 0.316 µM, first compound 3.16 µM",33.1%
same,"viability, T/C","second compound 0.316 µM, first compound 10 µM",8.52%
same,"viability, T/C",[19],4.91%
same,"viability, T/C",[20],5.46%
same,"viability, T/C",[21],4.96%
same,"viability, T/C",[22],5.32%
same,"viability, T/C","second compound 1 µM, first compound 3.16 µM",5.68%
same,"viability, T/C","second compound 1 µM, first compound 10 µM",5.62%
same,"viability, T/C",[23],7.02%
same,"viability, T/C",[24],8.45%
same,"viability, T/C",[25],6.23%
same,"viability, T/C",[26],8.2%
same,"viability, T/C","second compound 3.16 µM, first compound 3.16 µM",10.1%
same,"viability, T/C","second compound 3.16 µM, first compound 10 µM",9.62%
same,"viability, T/C",[27],2.81%
same,"viability, T/C",[28],2.91%
same,"viability, T/C",[29],2.02%
same,"viability, T/C",[30],2.43%
same,"viability, T/C","second compound 10 µM, first compound 3.16 µM",2.11%
same,"viability, T/C","second compound 10 µM, first compound 10 µM",1.29%
C#Cc1c(F)ccc2cc(O)cc(-c3ncc4c(N5CC6CCC(C5)N6)nc(OCC56CCCN5CC(F)C6)nc4c3F)c12 (centres undefined),"viability, T/C",compound 0.0316 µM,104% and 67.3%
same,"viability, T/C",compound 0.1 µM,90.1% and 49.6%
same,"viability, T/C",compound 0.316 µM,76.2% and 43.3%
same,"viability, T/C",compound 1 µM,58.3% and 26.4%
same,"viability, T/C",compound 3.16 µM,48.6% and 26%
same,"viability, T/C",compound 10 µM,40% and 21.3%
CC(Nc1ccc2c(c1)OCCn1cc(N3C(=O)OCC3C(F)F)nc1-2)C(N)=O (centres undefined),"viability, T/C",compound 0.0316 µM,98.6% and 96.1%
same,"viability, T/C",compound 0.1 µM,91.6% and 97.8%
same,"viability, T/C",compound 0.316 µM,71.3% and 89.9%
same,"viability, T/C",compound 1 µM,51.9% and 68.2%
same,"viability, T/C",compound 3.16 µM,36.4% and 46.8%
same,"viability, T/C",compound 10 µM,21.7% and 32.6%
same,IC50,curve of compound,1180 nM and 2540 nM
COc1c(OCCCN2CCOCC2)ccc2c3n(c(=NC(=O)c4cnc(N)nc4)nc12)CCN3 + CNC(=O)c1ccc(Nc2nc(OC3CCCC3)c3c(-c4ccc5nc(C)oc5c4)c[nH]c3n2)c(OC)c1,IC50,[1],50.9 nM
same,IC50,[2],52 nM
same,IC50,[3],29 nM
same,IC50,[4],8.6 nM
same,IC50,[5],< 3.16 nM
same,IC50,[6],< 3.16 nM
same,"viability, T/C","second compound 0.0316 µM, first compound 0.00316 µM",104%
same,"viability, T/C","second compound 0.0316 µM, first compound 0.01 µM",86.1%
same,"viability, T/C",[7],64.7%
same,"viability, T/C",[8],31.1%
same,"viability, T/C",[9],19.5%
same,"viability, T/C",[10],14.2%
same,"viability, T/C","second compound 0.1 µM, first compound 0.00316 µM",72.9%
same,"viability, T/C","second compound 0.1 µM, first compound 0.01 µM",98.3%
same,"viability, T/C",[11],64.4%
same,"viability, T/C",[12],29.2%
same,"viability, T/C",[13],18.8%
same,"viability, T/C",[14],14.4%
same,"viability, T/C","second compound 0.316 µM, first compound 0.00316 µM",81.4%
same,"viability, T/C","second compound 0.316 µM, first compound 0.01 µM",70.9%
same,"viability, T/C",[15],48.8%
same,"viability, T/C",[16],23.9%
same,"viability, T/C",[17],15.1%
same,"viability, T/C",[18],10.7%
same,"viability, T/C","second compound 1 µM, first compound 0.00316 µM",61.5%
same,"viability, T/C","second compound 1 µM, first compound 0.01 µM",47%
same,"viability, T/C",[19],31.2%
same,"viability, T/C",[20],14.6%
same,"viability, T/C",[21],9.5%
same,"viability, T/C",[22],10.9%
same,"viability, T/C","second compound 3.16 µM, first compound 0.00316 µM",42.9%
same,"viability, T/C","second compound 3.16 µM, first compound 0.01 µM",33.5%
same,"viability, T/C",[23],24.6%
same,"viability, T/C",[24],12.5%
same,"viability, T/C",[25],9.35%
same,"viability, T/C",[26],10.2%
same,"viability, T/C","second compound 10 µM, first compound 0.00316 µM",39.3%
same,"viability, T/C","second compound 10 µM, first compound 0.01 µM",32.5%
same,"viability, T/C",[27],25%
same,"viability, T/C",[28],11.4%
same,"viability, T/C",[29],8.81%
same,"viability, T/C",[30],10.2%
CC(C)CC(NC(=O)C(Cc1ccccc1)NC(=O)c1cnccn1)B(O)O (centres undefined),"viability, T/C",compound 0.000949 µM,99.7% and 88.2%
same,"viability, T/C",compound 0.003 µM,40% and 80.3%
same,"viability, T/C",compound 0.00949 µM,1.73% and 1.58%
same,"viability, T/C",compound 0.03 µM,0.47% and 0.59%
same,"viability, T/C",compound 0.0949 µM,0.33% and 0.52%
same,"viability, T/C",compound 0.3 µM,0.18% and 0.32%
same,IC50,curve of compound,2.48 nM and 4.67 nM

# — PubChem BioAssay AID2060622 (Molecular Pharmacology Branch, DTP, NCI, 2025)
